“Also recorded” adds a separate entry of the source.
How the values were obtained:
human EphB4 promoter [1] = assay: EphB4 promoter luciferase reporter assay in R+ cells (mouse embryo fibroblasts expressing human IGF-I receptor); type: cell-based
Source text: The TAAT motif at position −1365 of the −1500/−7mut construct used in conditions 7-9 was substituted with a TGCT motif by site directed mutagenesis. In FIG. 2, Series 1: Firefly Luciferare signal (pGL3-Luc EphB4 constructs); Seies 2: Renilla Luciferase signal (mock vector); and RLU: Relative Luciferase Units. Conditions: 1-3: −7/−1508 EphB4 promoter region; 4-6: −7/−1028 EphB4 promoter region; 7-9: −7/−1508mut EphB4 promoter construct, wherein: 1. Serum Free, EphB4 promoter −7/−1508; 2. IGF-II, 10 nM, EphB4 promoter −7/−1508; 3.10% FBS, EphB4 promoter −7/−1508; 4. Serum Free, EphB4 promoter −7/−1028; 5. IGF-II, 10 nM, EphB4 promoter −7/−1028; 6.10% FBS, EphB4 promoter −7/−1028; 7. Serum Free, EphB4 promoter −7/−1508mut; 8. IGF-II, 10 nM, EphB4 promoter −7/−1508mut; and 9.10% FBS, EphB4 promoter −7/−1508mut.
In order to establish the role of IGF-II on EphB4 expression, a mouse embryo fibroblast cell line expressing the human IGF-I receptor (R^+ cells) was transiently transfected with three variants of the human EphB4 promoter previously described by Bruhl et al., supra, along with trace amounts of a renilla luciferase mock vector. […] Cell lysates were generated and then assayed for Luciferase activity using a Promega Dual luciferase assay and a Veritas Luminescence reader (Biotek).

human EphB4 promoter [2] = assay: EphB4 promoter luciferase reporter assay in R-InsR-A cells (IGF-IR null embryo fibroblasts expressing human InsR-A); type: cell-based; conditions: IGF-II 10 nM
Protocol: In FIG. 3, Series 1: Firefly Luciferare signal (pGL3-Luc −1508/−7 EphB4 construct); Series 2: Renilla Luciferase signal (mock vector); and RLU=Relative Luciferase Units. Conditions: 1. R^+ cells (IGF-IR^+); Serum Free, EphB4 promoter −7/−1508; 2. R^+ cells (IGF-IR^+); IGF-II, 10 nM, EphB4 promoter −7/−1508; 3. R-IRA cells (InsR-A^+); Serum Free, EphB4 promoter −7/−1508; 4. R-IRA cells (InsR-A^+); IGF-II, 10 nM, EphB4 promoter −7/−1508.
In order to establish the role of IGF-II on EphB4 expression, a mouse embryo fibroblast cell line expressing the human IGF-I receptor (R^+ cells) was transiently transfected with three variants of the human EphB4 promoter previously described by Bruhl et al., supra, along with trace amounts of a renilla luciferase mock vector. 24 hrs post-trasfection, the cells were serum starved for 12 hrs and then stimulated (or not) with 10 nM IGF-II for 8 hrs. Cell lysates were generated and then assayed for Luciferase activity using a Promega Dual luciferase assay and a Veritas Luminescence reader (Biotek). […]

## IGF-II: Insulin-like growth factor-II, used at 10 nM to stimulate cells carrying EphB4 promoter reporter constructs
Human EphB4 promoter [1]; 10 nM IGF-II
  EphB4 reporter gene activation, promoter with -1500 to -1028 region deleted (-1028 to -7 construct): but not when the −1500 to −1028 region is deleted
Human EphB4 promoter [1]; 10 nM IGF-II for 8 hrs, Dual luciferase assay, compared with serum (10% FBS)
  EphB4 gene activation (reporter gene, full length promoter -1508 to -7): able to stimulate EphB4 gene activation at levels comparable to the ones obtained with serum activation; also recorded: causes the activation of the EphB4 reporter gene
Human EphB4 promoter [2]
  EphB4 gene activation (reporter gene, promoter -7/-1508) through InsR-A: comparable to that obtained through IGF-IR activation

Reference: patent publication US20110052667A1, “COMPOSITIONS AND METHODS FOR INHIBITING ANGIOGENESIS AND TUMORIGENESIS” (Sylgen Laboratories, Inc., priority 2007, published 2011)
